# Patent US7153839B2, “Method of protecting erythricytes, in particular for improvement of blood cytopenia” (Biocell Laboratories, priority 2000, dated 2006)
# Tests used:
# free arachidonic acid = assay: Free arachidonic acid in mouse blood plasma after carrageenan injection; assay type: in vivo; conditions: 320 min after carrageenan; LPS control 3.37
# Procedure: (§1) […] We tested the influence of yeast RNA on the activity of NO-synthetase ferment (NOS) in blood plasma and in erythrocytes, as well as on the content in blood plasma of free arachidonic acid and products of its oxide metabolism, carried out in lypoxygenase (leukotriene C4 (LTC4)) and cyclooxygenase (thromboxane B2 (T×B2)) ways.
# (§2) The content of free arachidonic acid (AA) was measured by two-dimensional thin-layer chromatography (TLC) as discussed in Tsunamoto et al. (Tsunamoto K., Todo S., Imashuku S. Separation of prostaglandines and thromboxane by two-dimensional thin-layer chromatography. J. Chromatog. 3; 417(2); 414–419; 1987. The content of stable metabolite of thromboxane A2 (TXB2) was studied in probes by radio-immune method with TXB2 [^3H] RIA Kit, by Amersham International PLC (England) (McCann D. S., Tokarsky J., Sorkin R. P., Radioimmunoassay for plasma thromboxane B2. Clin. Chem., 27(8): 1417–1420, 1981). The content of LTC4 was tested in probes by radio-immune method with LTC4 [^3H] RIA Kit by Du Pont Ltd. Hertfordshire, (UK) (Levine L., Morgan R. A., Levis R. A. et al., Radioimmunoassay of the leukotrienes of slow reactivity substance of anaphylaxis. Proc. Natl. Acad. Sci. USA. 78(12): 7692–7696; 1981).
# human thrombocytes = assay: Aggregation of thrombocytes induced by arachidonic acid in vitro; assay type: cell-based; conditions: Table 2; 0.06 mg per tube
# Procedure: We studied the anti-inflammatory action of nucleic acids on the model of thrombocyte aggregation in vitro by the method of Born (Born L.V.R. The aggregation of blood platelets by diphosphate and its reversal, Nature, […], P. 327, 1962). Venous human blood was taken in silicon tubes of Becton Dickson, which contained a 3.8% solution of sodium citrate. In order to receive thrombocytic-rich plasma, citrate blood was centrifuged at 1500 rev/mm for 7 minutes. Plasma free of thrombocytes was obtained by centrifuging 2.0 ml of plasma taken from medium layers for 15 minutes at 3000 rev/mm. We counted the number of thrombocytes in the thrombocytic-containing plasma, which was later diluted by the thrombocyte-free plasma to the final concentration […].
# An Aggregometer produced by “Tromlite” (Poland) was used for thrombocyte aggregation. In order to induce aggregation, arachidonic acid was diluted in Michaelis buffer in the proportion 1 mg/ml. Two tubes were inserted in the aggregometer, one of which contained 0.2 ml of thrombocyte-containing plasma, while the other one had 0.2 ml of thrombocyte-free plasma and 0.1 ml of isotonic solution of sodium chloride. […] Then, the light-transparency of thrombocyte-containing plasma was measured during 5 minutes, which indicated the stage of thrombocyte aggregation. […]
# thromboxane B2 = assay: Thromboxane B2 in mouse blood plasma after carrageenan injection; assay type: in vivo; conditions: 320 min after carrageenan; LPS control 358.240
# Procedure: as §1, §2
# [1] = tested on: carrageenan-induced swelling of leg; assay: Local inflammation (leg swelling) provoked by carrageenan in mice; assay type: in vivo, BALB-line mice; conditions: for % inhibition of swelling: 0.4 mg per mouse (20 mg/kg), 20 mg/kg
# Procedure: To study the anti-inflammatory action of drugs, we used the model of local inflammation in mice. Inflammation in BALB-line mice was modeled with the help of carrageenan, a classical phlogogenic agent. 30 minutes before the injection, the mice were injected intra-abdominally with drug, which was dissolved in […] of physiological solution (PS). Carrageenan […] produced by Serva Fein Biochemica (Germany) was prepared in the form of a 1% solution in PS. The obtained viscous solution, 40 mcl, was injected subplantally in the left back leg. The right, intact leg was taken as control. 4 hours later after the carrageenan injection, the mice were killed via decapitation, and their back legs were detached from the bodies on the same level, a little higher the ankles. After that, the legs were carefully weighted, with 1 mg accuracy. Obtained results were statistically processed by the MultiFac 2.2. SPSS 8/0 software. The anti-inflammatory effect of the drug was calculated by the formula:
# [formula] • Vk—average increase of volume (mass) of the swollen leg in control mice • Vo—average increase of volume (mass) of the swollen leg in treated mice
# In the first test, mice were divided into 8 groups. The first group consisted of control animals, which were injected intra-abdominally with 2 ml of PS. Also, […] of PS was injected in the left leg. This group was studied to determine the influence of injection on the course of inflammation in a leg. The second group, control with LPS, took […] of PS intra-abdominally and received LPS injections in the left leg. The third group took […] of aspirin dissolved in PS in the concentration 0.4 mg per mouse. In the fourth, fifth and sixth groups, yeast RNA-D was dissolved in PS in respective concentrations 5, 10, and 15 mg in 2 ml of PS per animal. LPS was injected in the left leg to provoke swelling. The seventh and eighth groups were treated respectively by DNA-TC and DNA-EC, which were injected in the concentration 15 mg per mouse, as explained above for RNA-treated groups.
# The right legs were left intact. 4 hours later, the animals were decapitated. […]
# NO-synthetase (NOS) [2] = assay: NOS activity in mouse blood plasma after carrageenan injection; assay type: in vivo; conditions: 320 min after carrageenan; LPS control 110.48
# Procedure: as §1
# (§3) The activity in blood plasma and erythrocytes of the enzyme NO-synthetase was measured by colometric method applied to the outcome of reaction, nitrite anion. (Yan L., Vandivier R. W., Suffredini A. F., Danner R. L., Human polymorphonuclear leukocytes lack detectable nitric oxide synthetase activity. J. Immunol., 15; 153(4): 1825–1834; 1994). […] The reaction was initiated by adding 0.1 ml of a probe containing 500 microgram of general protein determined by Bredford method. […]
# (§4) Nitrite anion was determined using the reagent of Gris in colometric reaction as decribed in Green et al. (Green L. C., Waagner D. A., Glogowski J. et al., Analysis of nitrate, nitrite and [15N] nitrate in biological fluids, Anal. Biochem., 126(1): 131–138;1982). […] In 5 minutes after mixing, the extinction at 543 hm was measured. The quantity of NO2 was measured by standard curve built for NaNO2.
# myeloperoxydase = assay: Myeloperoxydase activity in the ischemized part of myocardium; assay type: in vivo, rats; conditions: 30 minutes occlusion, 1 hour reperfusion; control 211.8+16.7
# Description: The mieloperoxydase activity (MPA) was studied in myocardium using the method of Bradley et al. (Bradley P. P., Priebet D. A., Christensen R. D. et al., Measurement of cutateous inflammation: estimation of neutrophil content with an enzyme marker, J. Invest. Dermatol., 78(3): 206–209; 1982) in the modification by Grisfwold et al. (Griswold D. E., Hillegass L. M., Hill D. E. et al., Method for quantification of myocardial infarction and inflammatory cell infiltration in rat cardial tissue, J. Pharmacol. Methods, 20(3): 225–235, 1988). For this purpose, the heart was extracted and rinsed in physiological solution, which was cooled to 0° C. After rinsing, a section of myocardium (1 g of the tissue) in the central zone of ischemia was cut out and frozen to −30° C. The final fraction was prepared as a 10% haemogenate with extractive buffer containing 0.5% hexadecyltrimethyl ammonium bromide (pH 6.0) at room temperature. […]
# The upper fraction (30 microliters) was used for a reaction with 0.167 mg/ml of O-dianisodine in 50 millimole/l of potassium phosphate buffer (pH 6.0). […] The reaction had been continuously tested for 5 minutes at 460 hm wave length, and with readings taken every minute. A chart indicating the readings was prepared. A unit of MPA was defined as the quantity of ferment, which destroys 1 micromole/min H2O2 at 25° C. The data was calculated as MPA per 1 gram of tissue. […]
# leukotriene C4 = assay: Leukotriene C4 in mouse blood plasma after carrageenan injection; assay type: in vivo; conditions: 320 min after carrageenan; LPS control 226.78
# NO-synthetase (NOS) [3] = assay: NOS activity in mouse erythrocytes after carrageenan injection; assay type: in vivo; conditions: 320 min after carrageenan; LPS control 2.232
# Procedure: as §1, §3, §4
smiles,measurement,setting,value
"CC(=O)Oc1ccccc1C(=O)O [Aspirin, aspirin]",content of free arachidonic acid in blood plasma,free arachidonic acid,2.64 nanomol per 1 mg of protein
same,"inhibition of thrombocyte aggregation (index of aggregation), M",human thrombocytes,38.66%
same,content of thromboxane B2 in blood plasma,thromboxane B2,153.903 picomol per 1 mg of protein
same,% inhibition of swelling,[1],18.03%
same,% inhibition of swelling,[1]; listed as aspirin,18.03%
same,increase of mass of the swollen leg,"[1]; 0.4 mg per mouse intra-abdominally, 4 hours after carrageenan, Control + LPS 43.31",35.5 +
same,"activity of NOS in blood plasma, M",NO-synthetase (NOS) [2],42.24 picomol per 1 min per 1 mg of protein
same,activity of myeloperoxydase in ischemized myocardium,myeloperoxydase,176.1+5.9 units per 1 g of tissue
same,content of leukotriene C4 in blood plasma,leukotriene C4,93.99 picomol per 1 mg of protein
same,"activity of NOS in erythrocytes, M",NO-synthetase (NOS) [3],3.613 picomol per 1 min per 1 mg of protein
